What was measured:
[1] = target: T1, full length heterotrimeric human RPA (Homo sapiens, UniProt P27694); experiment: Electrophoretic mobility shift assay (EMSA), binding of full length human RPA to ssDNA; settings: for IC50: full length human RPA binding to DNA, mean ± SD of minimum triplicate experiments
T1 construct: Full length, heterotrimeric human RPA (fl-RPA) and DBD-A/B constructs were expressed and purified; made in house
Procedure: Full length, heterotrimeric human RPA (fl-RPA) and DBD-A/B constructs were expressed and purified according to previously described protocol. The DBD-A/B construct was expressed as a His6-RPA181-422 fusion protein. E. coli BL21 (DE3) cells in log growth were induced for 3 h with 0.5 mM IPTG at 37° C. The cells were lysed via sonication in buffer containing 20 mM Tris pH 7.5, 500 mM NaCl, 10 mM b-mercaptoethanol, supplemented with 25 μg/mL lysozyme, 1 μg/mL leupeptin, 1 μg/mL pepstatin and 0.5 mM PMSF. The lysate was applied to a 20 mL phosphocellulose column equilibrated in the same buffer and the flow-through material collected, brought to 5 mM Imidazole and loaded onto a 2 ml Ni-NTA column. The column was washed and proteins eluted on with a gradient from 50 mM to 500 mM imidazole. Fractions were assessed by EMSA and SDS-PAGE and DBD-A/B containing fraction were pool, dialyzed against buffer containing 50 mM HEPES pH 7.0, 500 mM NaCl and 1 mM DTT and stored at −80° C.
EMSAs were carried out using previously described procedure with the following modification. EMSA reactions (20 μL) were performed with 50 nM fl-RPA and 2.5 nM 5′ [^32P]-labeled 34-base DNA in buffer containing 20 mM HEPES (pH 7.8), 1 mM DTT, 0.001% NP-40, 50 mM NaCl. Chemical compounds were suspended in DMSO and DMSO concentration in the reaction mixture was kept constant at 2% or below 5%. RPA was incubated with inhibitor or DMSO control in reaction buffer for 30 min before the addition of DNA. Reactions were incubated for 5 min at room temperature and products separated via 6% native polyacrylamide gel electrophoresis. The bound and unbound fractions were then quantified by phosphor-imager analysis using ImageQuant software (Molecular Dynamics, CA) and IC50 values calculated by non-linear regression using SigmPlot (Sysat). For EMSA reactions with RPA DBD-A/B, 150 nM DBD-A/B was used, and electrophoresis was performed at 4° C. All other conditions were identical to those described for the full-length RPA.
Purified full length heterotrimeric human RPA protein was used to screen a series of analogs in an electrophoretic mobility shift assay (EMSA) measuring direct binding to a ss-DNA substrate. Quantification of the EMSA data and additional concentration dependent analysis to measure IC50 values of newly synthesized analogs provided potential insight into the structure-activity relationships (Table 1 and 2). […] Fluorine and trifluoromethyl substituents were included in pyridinyl compounds 28-29.

[2] = test system: sonicated salmon sperm DNA; experiment: Fluorescent intercalator displacement (FID) assay, SYBR-Green; type: binding; settings: 25 mM MOPS pH 6.5
Procedure: The analysis of compound interactions with DNA was determined by inhibition of SYBR-Green intercalation into DNA as we have previously described. Briefly, reactions were performed in 25 mM MOPS (pH 6.5) containing sonicated salmon sperm DNA (8.29 ng/μL), SYBR-Green, and the indicated concentrations of RPA inhibitors. Reactions were conducted in black 96-well plates. Doxorubicin, a known noncovalent DNA binding chemotherapeutic, was used as a positive control. Fluorescence was measured using a BioTek® Synergy™ H1 hybrid multi-mode microplate reader with an excitation wavelength of 485 nm, emission wavelength of 528 nm, and a read height of 7 mm. Data were collected using BioTek® Gen5™ reader software. Reactions were incubated a maximum of 5 min before measurements were collected.
In order to probe the potential role of DNA intercalation as a mechanism for RPA inhibition, compounds 19, 23, 26, 27, 43 and 45 were analyzed using FID assay along with doxorubicin (Dox) as a positive control. […] In addition, direct binding of 9 derivatives to the target protein was assessed using a differential scan fluorimetry (DSF) assay. This assay assesses the melting profile of a protein at increasing temperatures via fluorescent dye binding. The direct interaction of a small molecule to the target protein can either increase or decrease the melting temperature (Tm) of the target depending on the specific protein and their interactions. […] Heparin sulfate, a known RPA interacting molecule often used in the purification of the protein was used as a control. […] (data not shown). […] (FIG. 1B).

[3] = Aqueous solubility in unbuffered water; type: physicochemical; settings: 43, 44, 45, 46, 47 vs 9, 16, 26, 28, 29 respectively
Procedure: Aqueous solubility was determined by suspending compound in un-buffered water with stirring. Insoluble material was removed by sedimentation or filtration and soluble compound quantified by absorbance spectroscopy and LC/MS. pH dependence was determined by suspending compound in 10 mM citrate buffer at pH 4.0 or 10 mM phosphate […] as described above in the description.
The morpholine ring is commonly introduced into solvent exposed regions as a privileged solubilizing group to improve solubility or pharmacokinetic properties including metabolic stability of a prospective drug scaffold which is exemplified by many FDA approved drugs. Modifications on Ring A had less of an effect than the morpholino modifications at the alkyl carboxylic acid side chain. To determine the effect of pH on solubility, we prepared solution at 1 mM in citrate buffer at pH 4, phosphate buffer at pH 7 and carbonate buffer at pH 9.5.

T1 sequence (P27694 whole entry): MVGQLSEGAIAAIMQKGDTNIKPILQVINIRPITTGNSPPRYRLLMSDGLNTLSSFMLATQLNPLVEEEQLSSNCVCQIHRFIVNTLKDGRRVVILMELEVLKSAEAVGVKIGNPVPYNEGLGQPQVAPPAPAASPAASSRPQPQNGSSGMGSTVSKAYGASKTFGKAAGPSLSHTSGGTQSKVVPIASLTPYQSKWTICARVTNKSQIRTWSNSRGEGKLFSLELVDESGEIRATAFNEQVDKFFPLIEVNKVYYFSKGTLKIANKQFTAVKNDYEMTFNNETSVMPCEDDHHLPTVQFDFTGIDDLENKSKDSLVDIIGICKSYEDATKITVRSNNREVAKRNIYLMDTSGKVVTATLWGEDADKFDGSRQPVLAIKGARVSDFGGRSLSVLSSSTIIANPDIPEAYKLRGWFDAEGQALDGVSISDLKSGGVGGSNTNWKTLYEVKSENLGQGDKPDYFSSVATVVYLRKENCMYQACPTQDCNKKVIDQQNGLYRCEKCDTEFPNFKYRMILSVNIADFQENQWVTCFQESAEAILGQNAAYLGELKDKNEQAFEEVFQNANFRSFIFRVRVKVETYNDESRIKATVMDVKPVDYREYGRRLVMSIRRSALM
T1 sequence (P15927 whole entry partner): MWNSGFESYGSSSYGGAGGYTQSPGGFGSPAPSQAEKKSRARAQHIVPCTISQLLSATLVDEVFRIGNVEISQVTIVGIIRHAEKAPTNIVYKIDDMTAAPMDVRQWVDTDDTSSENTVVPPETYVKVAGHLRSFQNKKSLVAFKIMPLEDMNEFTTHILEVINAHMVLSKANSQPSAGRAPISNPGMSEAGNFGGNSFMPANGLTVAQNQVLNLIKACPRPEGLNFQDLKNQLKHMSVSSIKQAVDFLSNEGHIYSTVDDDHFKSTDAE
T1 sequence (P35244 whole entry partner): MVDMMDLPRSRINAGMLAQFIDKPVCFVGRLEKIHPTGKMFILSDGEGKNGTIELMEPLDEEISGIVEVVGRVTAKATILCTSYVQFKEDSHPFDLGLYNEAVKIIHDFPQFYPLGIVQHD

Row | SMILES | IC50 [1] [µM] | further results
1 | CCOc1ccc2cc(C3CC(c4ccc(Br)cc4)=NN3C(=O)CCCC(=O)O)c(Cl)nc2c1 (stereo not shown) [Compound 16, 5-(3-(4-Bromophenyl)-5-(2-chloro-7-ethoxyquinolin-3-yl)-4,5-dihydro-1H-pyrazol-1-yl)-5-oxopentanoic acid] | 19.2 ± 4.17 | –
2 | CCOc1ccc2cc(C3CC(c4ccc(O)cc4)=NN3C(=O)CCCC(=O)O)c(Cl)nc2c1 (stereo not shown) [Compound 17, 5-(5-(2-Chloro-7-ethoxyquinolin-3-yl)-3-(4-hydroxyphenyl)-4,5-dihydro-1H-pyrazol-1-yl)-5-oxopentanoic acid] | > 25 | –
3 | CCOc1ccc2cc(C3CC(c4ccc([N+](=O)[O-])cc4)=NN3C(=O)CCCC(=O)O)c(Cl)nc2c1 (stereo not shown) [Compound 18, 5-(5-(2-Chloro-7-ethoxyquinolin-3-yl)-3-(4-nitrophenyl)-4,5-dihydro-1H-pyrazol-1-yl)-5-oxopentanoic acid] | > 25 | –
4 | CCOc1ccc2cc(C3CC(c4ccc(N)cc4)=NN3C(=O)CCCC(=O)O)c(Cl)nc2c1 (stereo not shown) [Compound 19, 5-(3-(4-Aminophenyl)-5-(2-chloro-7-ethoxyquinolin-3-yl)-4,5-dihydro-1H-pyrazol-1-yl)-5-oxopentanoic acid] | 2.34 ± 0.22 | DNA binding activity (displacement of SYBR-Green intercalator) [2]: No significant DNA binding activity
5 | C=CC(=O)Oc1ccc(C2=NN(C(=O)CCCC(=O)O)C(c3cc4ccc(OCC)cc4nc3Cl)C2)cc1 (stereo not shown) [Compound 20, 5-(3-(4-(Acryloyloxy)phenyl)-5-(2-chloro-7-ethoxyquinolin-3-yl)-4,5-dihydro-1H-pyrazol-1-yl)-5-oxopentanoic acid] | 8.98 ± 0.98 | fold increase in potency/activity compared to compound 9 ([1]; full length RPA): 2 fold
6 | CCOc1ccc2cc(C3CC(c4ccc(OC(=O)N5CCOCC5)cc4)=NN3C(=O)CCCC(=O)O)c(Cl)nc2c1 (stereo not shown) [Compound 21, 5-(5-(2-Chloro-7-ethoxyquinolin-3-yl)-3-(4-((morpholine-4-carbonyl)oxy)phenyl)-4,5-dihydro-1H-pyrazol-1-yl)-5-oxopentanoic acid] | > 25 | RPA inhibitory activity compared to compound 9 (in words) ([1]; full length RPA): decreased RPA inhibition
7 | CCOc1ccc2cc(C3CC(c4ccc(-c5ccoc5)cc4)=NN3C(=O)CCCC(=O)O)c(Cl)nc2c1 (stereo not shown) [Compound 22, 5-(5-(2-chloro-7-ethoxyquinolin-3-yl)-3-(4-(furan-3-yl)phenyl)-4,5-dihydro-1H-pyrazol-1-yl)-5-oxopentanoic acid] | 6.77 ± 0.64 | –
8 | CCOc1ccc2cc(C3CC(c4ccc(-c5ccc(F)nc5)cc4)=NN3C(=O)CCCC(=O)O)c(Cl)nc2c1 (stereo not shown) [Compound 28, 5-(5-(2-Chloro-7-ethoxyquinolin-3-yl)-3-(4-(6-fluoropyridin-3-yl)phenyl)-4,5-dihydro-1H-pyrazol-1-yl)-5-oxopentanoic acid] | 2.66 ± 0.6 | –
9 | CCOc1ccc2cc(C3CC(c4ccc(-c5ccc(C(F)(F)F)nc5)cc4)=NN3C(=O)CCCC(=O)O)c(Cl)nc2c1 (stereo not shown) [Compound 29, 5-(5-(2-Chloro-7-ethoxyquinolin-3-yl)-3-(4-(6-(trifluoromethyl)pyridin-3-yl)phenyl)-4,5-dihydro-1H-pyrazol-1-yl)-5-oxopentanoic acid] | 4.35 ± 0.42 | –
10 | CCOC(=O)CCCC(=O)N1N=C(c2ccc(I)cc2)CC1c1cc2ccc(OCC)cc2nc1Cl (stereo not shown) [Compound 30, ethyl 5-(5-(2-chloro-7-ethoxyquinolin-3-yl)-3-(4-iodophenyl)-4,5-dihydro-1H-pyrazol-1-yl)-5-oxopentanoate] | > 25 | RPA inhibitory activity compared to compound 9 (in words) ([1]; full length RPA): decreased RPA inhibitory activity
11 | CCOc1ccc2cc(C3CC(c4ccc(I)cc4)=NN3C(=O)CCCCC(=O)O)c(Cl)nc2c1 (stereo not shown) [Compound 37, 6-(5-(2-Chloro-7-ethoxyquinolin-3-yl)-3-(4-iodophenyl)-4,5-dihydro-1H-pyrazol-1-yl)-6-oxohexanoic acid] | 6.86 ± 0.23 | –
12 | CCOc1ccc2cc(C3CC(c4ccc(I)cc4)=NN3C(=O)CCCCCC(=O)O)c(Cl)nc2c1 (stereo not shown) [Compound 38, 7-(5-(2-Chloro-7-ethoxyquinolin-3-yl)-3-(4-iodophenyl)-4,5-dihydro-1H-pyrazol-1-yl)-7-oxoheptanoic acid] | 9.93 ± 1.23 | –
13 | CCOc1ccc2cc(C3CC(c4ccc(I)cc4)=NN3c3cccc(C(=O)O)c3)c(Cl)nc2c1 (stereo not shown) [Compound 39, 3-(5-(2-Chloro-7-ethoxyquinolin-3-yl)-3-(4-iodophenyl)-4,5-dihydro-1H-pyrazol-1-yl)benzoic acid] | > 25 | –
14 | CCOc1ccc2cc(C3CC(c4ccc(I)cc4)=NN3c3ccc(C(=O)O)cc3)c(Cl)nc2c1 (stereo not shown) [Compound 40, 4-(5-(2-Chloro-7-ethoxyquinolin-3-yl)-3-(4-iodophenyl)-4,5-dihydro-1H-pyrazol-1-yl)benzoic acid] | > 25 | –
15 | CCOc1ccc2cc(C3CC(c4ccc(I)cc4)=NN3C(=O)CCCC(=O)N3CCOCC3)c(Cl)nc2c1 (stereo not shown) [Compound 41, 1-(5-(2-Chloro-7-ethoxyquinolin-3-yl)-3-(4-iodophenyl)-4,5-dihydro-1H-pyrazol-1-yl)-5-morpholinopentane-1,5-dione] | 6.63 ± 0.48 | –
16 | CCOc1ccc2cc(C3CC(c4ccc(I)cc4)=NN3C(=O)CCCC(=O)NCCN3CCOCC3)c(Cl)nc2c1 (stereo not shown) [Compound 42, 5-(5-(2-Chloro-7-ethoxyquinolin-3-yl)-3-(4-iodophenyl)-4,5-dihydro-1H-pyrazol-1-yl)-N-(2-morpholinoethyl)-5-oxopentanamide] | 10.5 ± 0.68 | –
17 | CCOc1ccc2cc(C3CC(c4ccc(Br)cc4)=NN3C(=O)CCCC(=O)NCCCN3CCOCC3)c(Cl)nc2c1 (stereo not shown) [Compound 44, 5-(3-(4-Bromophenyl)-5-(2-chloro-7-ethoxyquinolin-3-yl)-4,5-dihydro-1H-pyrazol-1-yl)-N-(3-morpholinopropyl)-5-oxopentanamide] | 10 ± 1.46 | aqueous solubility compared to carboxylic acid counterpart (in words) [3]: increased solubility
18 | CCOc1ccc2cc(C3CC(c4ccc(-c5ccc(F)nc5)cc4)=NN3C(=O)CCCC(=O)NCCCN3CCOCC3)c(Cl)nc2c1 (stereo not shown) [Compound 46, 5-(5-(2-Chloro-7-ethoxyquinolin-3-yl)-3-(4-(6-fluoropyridin-3-yl)phenyl)-4,5-dihydro-1H-pyrazol-1-yl)-N-(3-morpholinopropyl)-5-oxopentanamide] | 2.29 ± 0.31 | aqueous solubility compared to carboxylic acid counterpart (in words) [3]: increased solubility
19 | COc1cccc2c1C(=O)c1c(O)c3c(c(O)c1C2=O)C[C@@](O)(C(=O)CO)C[C@@H]3O[C@H]1C[C@H](N)[C@H](O)[C@H](C)O1 [doxorubicin, reference compound] | – | DNA binding activity (displacement of SYBR-Green intercalator) [2]: concentration dependent reduction in fluorescence

Source: patent US12486246B2, “Replication protein A (RPA)-DNA interaction inhibitors” (THE TRUSTEES OF INDIANA UNIVERSITY, priority 2019, dated 2025)
